The target of the first experiment is T1, Human HIF-PHD2 (Homo sapiens, UniProt Q9GZT9).
T1 construct: FLAG-tagged full length PHD2 expressed in and purified from baculovirus-infected Sf9 cells; FLAG; made in house; host or cells: baculovirus-infected Sf9 cells
T1 sequence (Q9GZT9 whole entry): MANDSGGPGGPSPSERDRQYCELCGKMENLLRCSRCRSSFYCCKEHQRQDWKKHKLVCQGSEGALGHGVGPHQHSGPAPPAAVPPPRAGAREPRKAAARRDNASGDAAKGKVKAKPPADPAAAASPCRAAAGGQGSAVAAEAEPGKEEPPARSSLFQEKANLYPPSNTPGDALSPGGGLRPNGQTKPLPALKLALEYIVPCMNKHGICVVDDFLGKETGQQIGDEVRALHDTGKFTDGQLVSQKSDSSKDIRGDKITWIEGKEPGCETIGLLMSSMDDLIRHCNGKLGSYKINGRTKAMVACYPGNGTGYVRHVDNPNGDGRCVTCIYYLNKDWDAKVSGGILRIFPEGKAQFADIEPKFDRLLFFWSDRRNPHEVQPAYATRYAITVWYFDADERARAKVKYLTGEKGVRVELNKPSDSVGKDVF
Description: Inhibition of the hydroxylation of a HIF peptide by PHD2 (time resolved fluorescence, 384-well). Format: biochemical. The settings on record: FLAG-tagged full length PHD2; 0.2 μM 2-oxoglutarate, 0.5 μM HIF-1α peptide; 45 minutes at room temperature; read-out: Human HIF-PHD2 IC50.
For `O=C(O)CNC(=O)c1c(O)c2ccc(-c3cccnc3)c3c2n(c1=O)CCO3` [Example 153, N-[(7-Hydroxy-5-oxo-10-pyridin-3-yl-2,3-dihydro-5H-[1,4]oxazino[2,3,4-ij]quinolin-6-yl)carbonyl]glycine], the IC50 is 3.6 nM.

In the case of `O=C(O)CNC(=O)c1c(O)c2cccc3c2n(c1=O)C(c1ccc(Cl)cc1)CO3` (stereo not shown) [Example 157, 2-(7-Hydroxy-5-oxo-3-(4-chlorophenyl)-3,5-dihydro-2H-[1,4]oxazino[2,3,4-ij]quinoline-6-carboxamido)acetic acid], the IC50 turned out to be 25 nM.

The same experiment, now with this note: FLAG-tagged full length PHD2; 0.2 μM 2-oxoglutarate, 0.5 μM HIF-1α peptide; 45 minutes at room temperature; read-out: MS m/z (M + 1)+ and human HIF-PHD2 IC50.
For `O=C(O)CNC(=O)c1c(O)c2cccc3c2n(c1=O)C(c1ccc(-c2cccc(Cl)c2)cc1)CO3` (stereo not shown) [Example 142, N-{[3-(3′-chlorobiphenyl-4-yl)-7-hydroxy-5-oxo-2,3-dihydro-5H-[1,4]oxazino[2,3,4-ij]quinolin-6-yl]carbonyl}glycine], the IC50 was 19 nM.

Turning to `O=C(O)CNC(=O)c1c(O)c2cccc3c2n(c1=O)C(c1ccc(-c2ccc(C(F)(F)F)nc2)cc1)CO3` (stereo not shown) [Example 143, N-[(7-hydroxy-5-oxo-3-{4-[6-(trifluoromethyl)pyridin-3-yl]phenyl}-2,3-dihydro-5H-[1,4]oxazino[2,3,4-ij]quinolin-6-yl)carbonyl]glycine], the IC50 was 4.7 nM.

`Cc1ccc(-c2ccc(C3COc4cccc5c(O)c(C(=O)NCC(=O)O)c(=O)n3c45)cc2)cc1` (stereo not shown) [Example 144, N-{[7-hydroxy-3-(4′-methylbiphenyl-4-yl)-5-oxo-2,3-dihydro-5H-[1,4]oxazino[2,3,4-ij]quinolin-6-yl]carbonyl}glycine]: the IC50 came out at 10 nM.

For `COc1ccc(-c2ccc(C3COc4cccc5c(O)c(C(=O)NCC(=O)O)c(=O)n3c45)cc2)cc1` (stereo not shown) [Example 145, N-{[7-hydroxy-3-(4′-methoxybiphenyl-4-yl)-5-oxo-2,3-dihydro-5H-[1,4]oxazino[2,3,4-ij]quinolin-6-yl]carbonyl}glycine], the IC50 came out at 6.7 nM.

For the molecule `N#Cc1ccc(-c2ccc(C3COc4cccc5c(O)c(C(=O)NCC(=O)O)c(=O)n3c45)cc2)cc1` (stereo not shown) [Example 146, N-{[3-(4′-cyanobiphenyl-4-yl)-7-hydroxy-5-oxo-2,3-dihydro-5H-[1,4]oxazino[2,3,4-ij]quinolin-6-yl]carbonyl}glycine], the IC50 is 6.1 nM.

Turning to `COc1ncccc1-c1ccc(C2COc3cccc4c(O)c(C(=O)NCC(=O)O)c(=O)n2c34)cc1` (stereo not shown) [Example 147, N-({7-hydroxy-3-[4-(2-methoxypyridin-3-yl)phenyl]-5-oxo-2,3-dihydro-5H-[1,4]oxazino[2,3,4-ij]quinolin-6-yl}carbonyl)glycine], the IC50 is 18 nM.

Consider `O=C(O)CNC(=O)c1c(O)c2cccc3c2n(c1=O)C(c1ccc(-c2ccncc2)cc1)CO3` (stereo not shown) [Example 148, N-{[7-hydroxy-5-oxo-3-(4-pyridin-4-ylphenyl)-2,3-dihydro-5H-[1,4]oxazino[2,3,4-ij]quinolin-6-yl]carbonyl}glycine], for which the IC50 stood at 5.7 nM.

Take `Nc1ccc(-c2ccc(C3COc4cccc5c(O)c(C(=O)NCC(=O)O)c(=O)n3c45)cc2)cn1` (stereo not shown) [Example 149, N-({3-[4-(6-aminopyridin-3-yl)phenyl]-7-hydroxy-5-oxo-2,3-dihydro-5H-[1,4]oxazino[2,3,4-ij]quinolin-6-yl}carbonyl)glycine]: the IC50 amounted to 13 nM.

Consider `N#Cc1cccc(-c2ccc(C3COc4cccc5c(O)c(C(=O)NCC(=O)O)c(=O)n3c45)cc2)c1` (stereo not shown) [Example 150, N-{[3-(3′-cyanobiphenyl-4-yl)-7-hydroxy-5-oxo-2,3-dihydro-5H-[1,4]oxazino[2,3,4-ij]quinolin-6-yl]carbonyl}glycine], for which the IC50 was determined as 13 nM.

Regarding `O=C(O)CNC(=O)c1c(O)c2cccc3c2n(c1=O)C(c1ccc(-c2cccnc2)cc1)CO3` (stereo not shown) [Example 151, N-{[7-hydroxy-5-oxo-3-(4-pyridin-3-ylphenyl)-2,3-dihydro-5H-[1,4]oxazino[2,3,4-ij]quinolin-6-yl]carbonyl}glycine], the IC50 stood at 9.2 nM.

As for `O=C(O)CNC(=O)c1c(O)c2cccc3c2n(c1=O)C(c1ccc(-c2ccn[nH]2)cc1)CO3` (stereo not shown) [Example 152, 2-(3-(4-(1H-pyrazol-5-yl)phenyl)-7-hydroxy-5-oxo-3,5-dihydro-2H-[1,4]oxazino[2,3,4-ij]quinoline-6-carboxamido)acetic acid], the IC50 was found to be 11 nM.

On to `COc1ccc(-c2ccc3c(O)c(C(=O)NCC(=O)O)c(=O)n4c3c2OCC4)cn1` [Example 154, N-{[7-hydroxy-10-(6-methoxypyridin-3-yl)-5-oxo-2,3-dihydro-5H-[1,4]oxazino[2,3,4-ij]quinolin-6-yl]carbonyl}glycine], for which the IC50 stood at 3.7 nM.

Regarding `Cc1noc(C)c1-c1ccc2c(O)c(C(=O)NCC(=O)O)c(=O)n3c2c1OCC3` [Example 155, N-{[10-(3,5-dimethylisoxazol-4-yl)-7-hydroxy-5-oxo-2,3-dihydro-5H-[1,4]oxazino[2,3,4-ij]quinolin-6-yl]carbonyl}glycine], the IC50 was 3.3 nM.

On to `Nc1ccc(-c2ccc3c(O)c(C(=O)NCC(=O)O)c(=O)n4c3c2OCC4)cn1` [Example 156, N-{[10-(6-aminopyridin-3-yl)-7-hydroxy-5-oxo-2,3-dihydro-5H-[1,4]oxazino[2,3,4-ij]quinolin-6-yl]carbonyl}glycine], for which the IC50 worked out at 8.1 nM.

In the case of `O=C(O)CNC(=O)c1c(O)c2cc(F)cc3c2n(c1=O)C(c1ccc(C(F)(F)F)cc1)CO3` (stereo not shown) [Example 158, 2-(9-fluoro-7-hydroxy-5-oxo-3-(4-(trifluoromethyl)phenyl)-3,5-dihydro-2H-[1,4]oxazino[2,3,4-ij]quinoline-6-carboxamido)acetic acid], the IC50 was determined as 16 nM.

Consider `O=C(O)CNC(=O)c1c(O)c2cc(Br)cc3c2n(c1=O)C(c1ccc(C(F)(F)F)cc1)CO3` (stereo not shown) [Example 159, 2-(9-bromo-7-hydroxy-5-oxo-3-(4-(trifluoromethyl)phenyl)-3,5-dihydro-2H-[1,4]oxazino[2,3,4-ij]quinoline-6-carboxamido)acetic acid], for which the IC50 was found to be 47 nM.

As to `O=C(O)CNC(=O)c1c(O)c2ccc(Br)c3c2n(c1=O)C(c1ccc(C(F)(F)F)cc1)CO3` (stereo not shown) [Example 161, 2-(10-bromo-7-hydroxy-5-oxo-3-(4-(trifluoromethyl)phenyl)-3,5-dihydro-2H-[1,4]oxazino[2,3,4-ij]quinoline-6-carboxamido)acetic acid], the IC50 worked out at 16 nM.

As to `O=C(O)CNC(=O)c1c(O)c2c(F)ccc3c2n(c1=O)C(c1ccc(C(F)(F)F)cc1)CO3` (stereo not shown) [Example 162, 2-(8-fluoro-7-hydroxy-5-oxo-3-(4-(trifluoromethyl)phenyl)-3,5-dihydro-2H-[1,4]oxazino[2,3,4-ij]quinoline-6-carboxamido)acetic acid], the IC50 was found to be 15 nM.

As to `O=C(O)CNC(=O)c1c(O)c2ccc(F)c3c2n(c1=O)C(c1ccc(C(F)(F)F)cc1)CO3` (stereo not shown) [Example 164, 2-(10-fluoro-7-hydroxy-5-oxo-3-(4-(trifluoroMethyl)phenyl)-3,5-dihydro-2H-[1,4]oxazino[2,3,4-ij]quinoline-6-carboxamido)acetic acid], the IC50 was determined as 16 nM.

On to `O=C(O)CNC(=O)c1c(O)c2ccc(Cl)c3c2n(c1=O)C(c1ccc(C(F)(F)F)cc1)CO3` (stereo not shown) [Example 165, 2-(10-chloro-7-hydroxy-5-oxo-3-(4-(trifluoromethyl)phenyl)-3,5-dihydro-2H-[1,4]oxazino[2,3,4-ij]quinoline-6-carboxamido)acetic acid], for which the IC50 came out at 19 nM.

The values are drawn from patent US9969752B2, “Inhibitors of HIF prolyl hydroxylase” (MERCK SHARP & DOHME CORP., priority 2014, dated 2018).
